Data: patent US20240108725A1, “METHOD FOR TREATING CANCER AND SYSTEM FOR SAME” (OTSUKA MEDICAL DEVICES CO., LTD, priority 2020, published 2024)

System: C6 cells
Experiment: Rate of dead cells after 5-ALA PDT in erythrocyte solution, C6 cells, Example 3
Type: cell-based, rat
Description: C6 cells or human leukemia cell line TL-Oml cells were cultured in 2.5% FBS/F-12K medium (C6 cells) or 10% FBS/RPMI1640 (TL-Oml cells) supplemented with 5-ALA to a final concentration of 0.125 to 0.5 mM in a 5% CO2 incubator at 37° C. for 4 hours. After the culture, the cells were removed with a 0.25% trypsin-EDTA solution, and the collected cells were adjusted to 2×10^7 cells/mL with an erythrocyte solution (a solution in which erythrocytes and PBS were mixed at a ratio of 45:55). The cell suspension thus prepared was injected into a Tygon tube (inner diameter: 0.79 mm), wrapped around a light irradiator, and irradiated with light having a wavelength of 630 nm so that the irradiation energy density was 0.5 to 500 J/cm^2. After the irradiation, an ammonium chloride solution was added to the cell suspension to hemolyze the erythrocytes. Cells before the PDT treatment, after the PDT treatment, and after 24-hour culture were stained with the FITC Annexin V Apoptosis Detection Kit I and the rate of dead cells was analyzed with a flow cytometer.

[1] = 5-ALA 0.125 mM, 20 J/cm^2, 24 hours after irradiation
[2] = 5-ALA 0.125 mM, 20 J/cm^2, immediately after irradiation
[3] = 5-ALA 0.125 mM, 50 J/cm^2, 24 hours after irradiation
[4] = 5-ALA 0.125 mM, 50 J/cm^2, immediately after irradiation
[5] = 5-ALA 0.125 mM, 100 J/cm^2, 24 hours after irradiation
[6] = 5-ALA 0.125 mM, 100 J/cm^2, immediately after irradiation
[7] = 5-ALA 0.125 mM, 400 J/cm^2, 24 hours after irradiation
[8] = 5-ALA 0.125 mM, 400 J/cm^2, immediately after irradiation
[9] = 5-ALA 0.125 mM, 500 J/cm^2, 24 hours after irradiation
[10] = 5-ALA 0.125 mM, 500 J/cm^2, immediately after irradiation
[11] = 5-ALA 0.25 mM, 2.5 J/cm^2, 24 hours after irradiation
[12] = 5-ALA 0.25 mM, 2.5 J/cm^2, immediately after irradiation
[13] = 5-ALA 0.25 mM, 5 J/cm^2, 24 hours after irradiation
[14] = 5-ALA 0.25 mM, 5 J/cm^2, immediately after irradiation
[15] = 5-ALA 0.25 mM, 250 J/cm^2, 24 hours after irradiation
[16] = 5-ALA 0.25 mM, 250 J/cm^2, immediately after irradiation
[17] = 5-ALA 0.25 mM, 300 J/cm^2, 24 hours after irradiation
[18] = 5-ALA 0.25 mM, 300 J/cm^2, immediately after irradiation
[19] = 5-ALA 0.25 mM, 350 J/cm^2, 24 hours after irradiation
[20] = 5-ALA 0.25 mM, 350 J/cm^2, immediately after irradiation
[21] = 5-ALA 0.5 mM, 0.5 J/cm^2, 24 hours after irradiation
[22] = 5-ALA 0.5 mM, 0.5 J/cm^2, immediately after irradiation
[23] = 5-ALA 0.5 mM, 1 J/cm^2, 24 hours after irradiation
[24] = 5-ALA 0.5 mM, 1 J/cm^2, immediately after irradiation
[25] = 5-ALA 0.5 mM, 2.5 J/cm^2, 24 hours after irradiation
[26] = 5-ALA 0.5 mM, 2.5 J/cm^2, immediately after irradiation
[27] = 5-ALA 0.5 mM, 100 J/cm^2, 24 hours after irradiation
[28] = 5-ALA 0.5 mM, 100 J/cm^2, immediately after irradiation
[29] = 5-ALA 0.5 mM, 350 J/cm^2, 24 hours after irradiation
[30] = 5-ALA 0.5 mM, 350 J/cm^2, immediately after irradiation
[31] = 5-ALA 0.5 mM, 400 J/cm^2, 24 hours after irradiation
[32] = 5-ALA 0.5 mM, 400 J/cm^2, immediately after irradiation
[33] = 5-ALA 0.5 mM, 500 J/cm^2, 24 hours after irradiation
[34] = 5-ALA 0.5 mM, 500 J/cm^2, immediately after irradiation

Q: Which results are given for `NCC(=O)CCC(=O)O` [5-ALA, 5-aminolevulinic acid]?
A: Annexin V+/PI+ (%) [1]: 2%; Annexin V+/PI− (%) [1]: 3%; Annexin V-/PI− (%) [1]: 95%; Annexin V+/PI+ (%) [2]: 2%; Annexin V+/PI− (%) [2]: 1%; Annexin V−/PI− (%) [2]: 97%; Annexin V+/PI+ (%) [3]: 3%; Annexin V+/PI− (%) [3]: 3%; Annexin V-/PI− (%) [3]: 94%; Annexin V+/PI+ (%) [4]: 3%; Annexin V+/PI− (%) [4]: 1%; Annexin V−/PI− (%) [4]: 95%; Annexin V+/PI+ (%) [5]: 4%; Annexin V+/PI− (%) [5]: 4%; Annexin V-/PI− (%) [5]: 92%; Annexin V+/PI+ (%) [6]: 4%; Annexin V+/PI− (%) [6]: 1%; Annexin V−/PI− (%) [6]: 95%; Annexin V+/PI+ (%) [7]: 10%; Annexin V+/PI− (%) [7]: 5%; Annexin V+/PI+ (%) [8]: 6%; Annexin V+/PI− (%) [8]: 1%; Annexin V−/PI− (%) [8]: 93%; Annexin V+/PI+ (%) [9]: 27%; Annexin V+/PI− (%) [9]: 9%; Annexin V+/PI+ (%) [10]: 17%; Annexin V+/PI− (%) [10]: 0%; Annexin V−/PI− (%) [10]: 82%; Annexin V+/PI+ (%) [11]: 2%; Annexin V+/PI− (%) [11]: 5%; Annexin V−/PI− (%) [11]: 93%; Annexin V+/PI+ (%) [12]: 2%; Annexin V+/PI− (%) [12]: 1%; Annexin V−/PI− (%) [12]: 97%; Annexin V+/PI+ (%) [13]: 5%; Annexin V+/PI− (%) [13]: 8%; Annexin V−/PI− (%) [13]: 88%; Annexin V+/PI+ (%) [14]: 3%; Annexin V+/PI− (%) [14]: 1%; Annexin V−/PI− (%) [14]: 96%; Annexin V+/PI+ (%) [15]: 59%; Annexin V+/PI− (%) [15]: 8%; Annexin V−/PI− (%) [15]: 23%; Annexin V+/PI+ (%) [16]: 70%; Annexin V+/PI− (%) [16]: 0%; Annexin V−/PI− (%) [16]: 28%; Annexin V+/PI+ (%) [17]: 86%; Annexin V+/PI− (%) [17]: 4%; Annexin V−/PI− (%) [17]: 10%; Annexin V+/PI+ (%) [18]: 83%; Annexin V+/PI− (%) [18]: 0%; Annexin V−/PI− (%) [18]: 14%; Annexin V+/PI+ (%) [19]: 96%; Annexin V+/PI− (%) [19]: 1%; Annexin V−/PI− (%) [19]: 2%; Annexin V+/PI+ (%) [20]: 91%; Annexin V+/PI− (%) [20]: 0%; Annexin V−/PI− (%) [20]: 6%; Annexin V+/PI+ (%) [21]: 2%; Annexin V+/PI− (%) [21]: 3%; Annexin V−/PI− (%) [21]: 95%; Annexin V+/PI+ (%) [22]: 3%; Annexin V+/PI− (%) [22]: 2%; Annexin V−/PI− (%) [22]: 95%; Annexin V+/PI+ (%) [23]: 2%; Annexin V+/PI− (%) [23]: 3%; Annexin V−/PI− (%) [23]: 95%; Annexin V+/PI+ (%) [24]: 3%; Annexin V+/PI− (%) [24]: 1%; Annexin V−/PI− (%) [24]: 96%; Annexin V+/PI+ (%) [25]: 4%; Annexin V+/PI− (%) [25]: 4%; Annexin V−/PI− (%) [25]: 92%; Annexin V+/PI+ (%) [26]: 4%; Annexin V+/PI− (%) [26]: 1%; Annexin V−/PI− (%) [26]: 94%; Annexin V+/PI+ (%) [27]: 86%; Annexin V+/PI− (%) [27]: 6%; Annexin V−/PI− (%) [27]: 8%; Annexin V+/PI+ (%) [28]: 81%; Annexin V+/PI− (%) [28]: 2%; Annexin V−/PI− (%) [28]: 15%; Annexin V+/PI+ (%) [29]: 92%; Annexin V+/PI− (%) [29]: 4%; Annexin V−/PI− (%) [29]: 3%; Annexin V+/PI+ (%) [30]: 90%; Annexin V+/PI− (%) [30]: 0%; Annexin V−/PI− (%) [30]: 8%; Annexin V+/PI+ (%) [31]: 96%; Annexin V+/PI− (%) [31]: 2%; Annexin V−/PI− (%) [31]: 1%; Annexin V+/PI+ (%) [32]: 94%; Annexin V+/PI− (%) [32]: 0%; Annexin V−/PI− (%) [32]: 5%; Annexin V+/PI+ (%) [33]: 98%; Annexin V+/PI− (%) [33]: 2%; Annexin V−/PI− (%) [33]: 1%; Annexin V+/PI+ (%) [34]: 97%; Annexin V+/PI− (%) [34]: 0%; Annexin V−/PI− (%) [34]: 2%
